This is an account of results in patent publication US9302996B2, “Continuous arycyclic compound” (MITSUBISHI TANABE PHARMA CORPORATION, priority 2010, dated 2016).

Read-outs that look alike come from different tables or passages of the source. Marks after values point to notes of the source that are not given here.

Common to all, as to format: in vivo
The test system of test [1] is ICR mice. The test is described as follows: Triglyceride (TG) in blood plasma increase-inhibiting action due to lipid administration. The settings on record: Mus musculus; male ICR mice, 5 mg/kg oral, lipid (Intralipos 20%) after 30 minutes, plasma TG 2 hours after lipid; read-out: Inhibiting rate of TG-increase in blood plasma (5 mg/kg). How it is done: 6 to 9 weeks-old male ICR mice were fasted overnight, and Test compound suspended in 0.2% carboxymethyl cellulose solution was orally administered to the mice. A lipid (Intralipos 20%, OTSUKA PHARMACEUTICAL CO., LTD., 10 mL/kg) was orally administered after 30 minutes. Blood was collected from tail vein immediately before the lipid administration, and after 2 hours from the same to obtain blood plasma. Measurement of TG in blood plasma was carried out by using a triglyceride E Test Wako (Wako Pure Chemical Industries, Ltd.), and an increased value of TG in blood plasma by administration of the lipid was calculated. An increased value of TG in blood plasma in a solvent control group was used as a control, and an inhibiting rate in increase of TG in blood plasma in the Test compound administered group was calculated.

In test [2] the test system is C57BL/6J mice. The test is described as follows: Antifeeding activity (high fat diet intake up to 4 hours). The settings on record: Mus musculus, male C57BL/6J mice, 5 mg/kg oral, food ingested up to 4 hours, read-out: Antifeeding rate (5 mg/kg). The method, then: 7 to 10 weeks-old male C57BL/6J mice were fasted overnight, and the test compound suspended in 0.2% carboxymethylcellulose solution was orally administered. Immediately after the administration, high fat diet (Oriental Yeast Co., Ltd, 60 cal % fat) was provided and freely fed. An amount of food ingested up to 4 hours was measured, and a lowering rate (an antifeeding rate) of the amount of food ingested in the Test compound administered group was calculated as compared to that of the solvent control group as a control.

Test [3] concerns KK-Ay mice. Nature of the test: Weight gain-inhibiting action, hypoglycemic effect, insulin in blood plasma lowering action in KK-Ay mice. The settings on record: male KK-Ay mice, high fat diet, 2 weeks; for inhibition in vivo at 30 mg/kg: Mus musculus, 336 h, 30 mg/kg/day oral. How it is done:
To 8 weeks-old male KK-Ay mice were provided high fat diet (Oriental Yeast Co., Ltd, 60 cal % fat), and Test compound suspended in 0.2% carboxymethylcellulose solution was orally administered once a day. Oral administration was continued for 2 weeks, and a weight gain-inhibiting rate of the Test compound was calculated by using a weight gain amount of the solvent control group during the test period as 100%. After final administration, the mice were fasted overnight, and blood was collected from tail vein. Measurement of a blood-sugar level was carried out by using glucose Cα Test Wako (Wako Pure Chemical Industries, Ltd.), and measurement of insulin in blood plasma was carried out by using a mouse insulin measurement kit (Morinaga Institute of Biological Science, Inc.).

[4] abbreviates: read-out: Hypoglycemic action (30 mg/kg/day).
Setting [5] is: read-out: Insulin in blood plasma-lowering action (30 mg/kg/day).
Setting [6] is: read-out: Weight gain-inhibiting action (30 mg/kg/day).
The mark [7] stands for this setting: administration dose of 10 mg/kg/day oral.

`CC(C)(COc1cnc(-c2ccc(-c3nc(C(F)(F)F)c[nH]3)cc2)cn1)C(=O)O` [Example 89-2), 2,2-dimethyl-3-[(5-{4-[4-(trifluoromethyl)-1H-imidazol-2-yl]phenyl}pyrazin-2-yl)oxy]-propanoic acid]: the inhibition in vivo at 5 mg/kg in test [1] came out at 52%; in test [2] it was 75%. Moreover, the inhibition in vivo at 30 mg/kg in test [3] (setting [4]) worked out at 68%; in test [3] (setting [5]), 88%; in test [3] (setting [6]), 63%.

Turning to `Cc1cc(-c2ccc(OCC(C)(C)C(=O)O)cc2)ncc1-c1ncc(C(F)(F)F)[nH]1` [Example 5-3), 2,2-dimethyl-3-(4-{4-methyl-5-[5-(trifluoromethyl)-1H-imidazol-2-yl]pyridin-2-yl}-phenoxy)propanoic acid], the inhibition in vivo at 5 mg/kg is 71% in test [1] and 37% in test [2]. The inhibition in vivo at 30 mg/kg is 55% in test [3] (setting [4]), 56% in test [3] (setting [5]) and 48% in test [3] (setting [6]).

Turning to `Cc1cc(OCC(C)(C)C(=O)O)ncc1-c1cnc(-c2ncc(C(F)(F)F)[nH]2)cn1` [Example 95-6), 2,2-dimethyl-3-[(4-methyl-5-{5-[5-(trifluoromethyl)-1H-imidazol-2-yl]pyrazin-2-yl}pyridin-2-yl)oxy]propanoic acid], the results for the inhibition in vivo at 5 mg/kg in test [1] and in test [2] were 70% and 83%, respectively. In addition, the inhibition in vivo at 30 mg/kg came out at 66% in test [3] (setting [4]), 58% in test [3] (setting [5]) and 75% in test [3] (setting [6]).

As for `Cc1cc(OCC(C)(C)C(=O)O)ncc1-c1cnc(-c2ncc(C(F)(F)F)[nH]2)c(C)c1` [Example 114], the inhibition in vivo at 5 mg/kg turned out to be 64% in test [1] and 59% in test [2]. Also, the inhibition in vivo at 30 mg/kg in test [3] (setting [4]) turned out to be 48%; in test [3] (setting [5]) it was 60%; in test [3] (setting [6]), 45%.

For the compound `CC(C)(COc1ccc(-c2ccc(-c3ncc(C4(C(F)(F)F)CC4)[nH]3)cn2)cc1)C(=O)O` [Example 6-3), sodium 2,2-dimethyl-3-[4-(5-{5-[1-(trifluoromethyl)cyclopropyl]-1H-imidazol-2-yl]pyridin-2-yl}phenoxy)propanoate], the inhibition in vivo at 5 mg/kg amounted to 78% in test [1] and 71% in test [2]. Besides, the figures for the inhibition in vivo at 30 mg/kg in test [3] (setting [4]) and in test [3] (setting [5]) were 63% and 72%, respectively.

Take `CC(C)(COc1ccc(-c2ccc(-c3ncc(C4CC(F)(F)C4)[nH]3)cn2)cc1)C(=O)O` [Example 33]: the inhibition in vivo at 5 mg/kg turned out to be 54% in test [1] and 44% in test [2]. The figures for the inhibition in vivo at 30 mg/kg in test [3] (setting [4]), in test [3] (setting [5]) and in test [3] (setting [6]) were 42%, 41% and 39%, respectively.

As to `Cc1cc(OCC(C)(C)C(=O)O)ncc1-c1ccc(-c2ncc(CC3CC3)[nH]2)c(F)c1` [Example 96-2), 3-[(5-{4-[5-(cyclopropylmethyl)-1H-imidazol-2-yl]-3-fluorophenyl}-4-methylpyridin-2-yl)oxy]-2,2-dimethylpropanoic acid], the inhibition in vivo at 5 mg/kg was determined as 48% in test [1] and 58% in test [2]. The results for the inhibition in vivo at 30 mg/kg in test [3] (setting [4]), in test [3] (setting [5]) and in test [3] (setting [6]) were 66%, 71% and 75%, respectively.

As for `Cc1cc(OCC(C)(C)C(=O)O)ncc1-c1cnc(-c2ncc(C(F)(F)F)[nH]2)c(Cl)c1` [Example 112], the inhibition in vivo at 5 mg/kg in test [1] was found to be 67%; in test [2] it was 52%. For the same compound, the results for the inhibition in vivo at 30 mg/kg in test [3] (setting [4]), in test [3] (setting [5]) and in test [3] (setting [6]) were 49%, 61% and 47%, respectively.

Regarding `CC(C)(COc1ccc(-c2ccc(-c3ncc(C(F)(F)F)[nH]3)cn2)cc1F)C(=O)O` [Example 4-2), 3-(2-fluoro-4-{5-[5-(trifluoromethyl)-1H-imidazol-2-yl]pyridin-2-yl}phenoxy)-2,2-dimethylpropanoic acid], the inhibition in vivo at 5 mg/kg in test [1] was 60%; in test [2] it was 82%. For the same compound, the inhibition in vivo at 30 mg/kg in test [3] (setting [4]) came to 50%; in test [3] (setting [5]), 52%; in test [3] (setting [6]), 49%.

As to `Cc1cc(OCC(C)(C)C(=O)O)ncc1-c1ccc(-c2ncc(C(F)(F)F)[nH]2)nc1` [Example 61-3), 2,2-dimethyl-3-({4-methyl-6′-[5-(trifluoromethyl)-1H-imidazol-2-yl]-3,3′-bipyridin-6-yl}oxy)propanoic acid], the inhibition in vivo at 5 mg/kg in test [1] turned out to be 68%; in test [2] it was 80%. The inhibition in vivo at 30 mg/kg was 60% in test [3] (setting [4]), 77% in test [3] (setting [5]) and 90% in test [3] (setting [6]).

Take `Cc1cc(OCC(C)(C)C(=O)O)ncc1-c1ccc(-c2ncc(C(F)(F)F)[nH]2)cn1` [Example 72]: the inhibition in vivo at 5 mg/kg in test [1] amounted to 85%; in test [2], 65%. Besides, the inhibition in vivo at 30 mg/kg in test [3] (setting [4]) amounted to 38%; in test [3] (setting [5]), 28%; in test [3] (setting [6]), 43%.

In the case of `CC(C)(COc1ccc(-c2ccc(-c3ncc(C(F)(F)C(F)(F)F)[nH]3)cn2)cc1)C(=O)O` [Example 69], in test [1], the inhibition in vivo at 5 mg/kg was 85%. The inhibition in vivo at 5 mg/kg in test [2] amounted to 87%. For the same compound, in test [3] (setting [7]), the Hypoglycemic action was 61%^#, the “Insulin in blood plasma-lowering action” value was 37%^# and the Weight gain-inhibiting action stood at 43%^#.

As to `Cc1cc(OCC(C)(C)C(=O)O)ncc1-c1ccc(-c2ncc(CC(C)C)[nH]2)c(F)c1` [Example 119], the results for the inhibition in vivo at 5 mg/kg in test [1] and in test [2] were 67% and 51%, respectively. Moreover, the inhibition in vivo at 30 mg/kg came to 40% in test [3] (setting [4]), 28% in test [3] (setting [5]) and 36% in test [3] (setting [6]).

In the case of `CC(C)(COc1ccc(-c2ccc(-c3ncc(C(F)(F)F)[nH]3)cn2)cn1)C(=O)O` [Example 13-3), 2,2-dimethyl-3-[[5-[5-[4-(trifluoromethyl)-1H-imidazol-2-yl]-2-pyridyl]-2-pyridyl]oxy]propanoic acid], the inhibition in vivo at 5 mg/kg came to 51% in test [1] and 60% in test [2].

Turning to `Cc1cc(OCC2(C(=O)O)CCC2)ncc1-c1ccc(-c2ncc(C(F)(F)F)[nH]2)nc1` [Example 97-5), 1-[({4-methyl-6′-[5-(trifluoromethyl)-1H-imidazol-2-yl]-3,3′-bipyridin-6-yl}oxy)methyl]cyclobutanecarboxylic acid], the inhibition in vivo at 5 mg/kg in test [1] worked out at 102%; in test [2], 92%.

With `CC(C)(COc1ccc(-c2ccc(-c3ncc(C4CCCCCC4)[nH]3)cn2)cc1)C(=O)O` [Example 31], the values for the inhibition in vivo at 5 mg/kg in test [1] and in test [2] were 86% and 65%, respectively.

For the compound `CC(C)(COc1ncc(-c2ccc(-c3ncc(C(F)(F)F)[nH]3)cc2)cc1F)C(=O)O` [Example 90], the inhibition in vivo at 5 mg/kg came out at 83% in test [1] and 75% in test [2].

For `CCc1cnc(-c2ccc(-c3ccc(OCC(C)(C)C(=O)O)cc3)nc2)[nH]1` [Example 58-2), 3-[4-[5-(5-ethyl-1H-imidazol-2-yl)-2-pyridyl]phenoxy]-2,2-dimethylpropanoic acid], the inhibition in vivo at 5 mg/kg in test [1] came out at 64%; in test [2], 65%.

Consider `Cc1cc(OCC2(C(=O)O)CC2)ncc1-c1ccc(-c2ncc(C(F)(F)F)[nH]2)nc1` [Example 132], for which the inhibition in vivo at 5 mg/kg in test [1] stood at 65%; in test [2] it was 47%.

Consider `Cc1cc(OCC2(C(=O)O)CCC2)ncc1-c1ccc(-c2ncc(C(F)(F)F)[nH]2)c(F)c1` [Example 98-3), 1-{[(5-{3-fluoro-4-[5-(trifluoromethyl)-1H-imidazol-2-yl]phenyl}-4-methylpyridin-2-yl)oxy]methyl}cyclobutanecarboxylic acid], for which the results for the inhibition in vivo at 5 mg/kg in test [1] and in test [2] were 105% and 89%, respectively.

Consider `CC(C)Cc1cnc(-c2ccc(-c3ccc(OCC(C)(C)C(=O)O)nc3)nc2)[nH]1` [Example 59], for which the inhibition in vivo at 5 mg/kg in test [1] was determined as 74%; in test [2], 50%.
